Assay results: ChEMBL document CHEMBL1141668, “Synthesis and biological activity of imidazopyridine anticoccidial agents: Part II” (Eur J Med Chem, 2008)

Columns and labels:
Eimeria maxima [1] = assay: Anticoccidial activity against Eimeria maxima in chickens assessed as reduction of oocysts at 6 ppm measured after 8 days by ExMAC assay relative to untreated control; format: functional; set-up: scale not given: the % may be the effect or the level left
Eimeria maxima [2] = assay: Anticoccidial activity against Eimeria maxima in chickens assessed as reduction of oocysts at 3 ppm measured after 8 days by ExMAC assay relative to untreated control; format: functional; set-up: scale not given: the % may be the effect or the level left
[3] = biological target: cGMP-dependent protein kinase (Eimeria tenella, UniProt Q8MMZ8); assay: Inhibition of Eimeria tenella cGMP-dependent protein kinase
Sequence of cGMP-dependent protein kinase (Q8MMZ8 whole entry): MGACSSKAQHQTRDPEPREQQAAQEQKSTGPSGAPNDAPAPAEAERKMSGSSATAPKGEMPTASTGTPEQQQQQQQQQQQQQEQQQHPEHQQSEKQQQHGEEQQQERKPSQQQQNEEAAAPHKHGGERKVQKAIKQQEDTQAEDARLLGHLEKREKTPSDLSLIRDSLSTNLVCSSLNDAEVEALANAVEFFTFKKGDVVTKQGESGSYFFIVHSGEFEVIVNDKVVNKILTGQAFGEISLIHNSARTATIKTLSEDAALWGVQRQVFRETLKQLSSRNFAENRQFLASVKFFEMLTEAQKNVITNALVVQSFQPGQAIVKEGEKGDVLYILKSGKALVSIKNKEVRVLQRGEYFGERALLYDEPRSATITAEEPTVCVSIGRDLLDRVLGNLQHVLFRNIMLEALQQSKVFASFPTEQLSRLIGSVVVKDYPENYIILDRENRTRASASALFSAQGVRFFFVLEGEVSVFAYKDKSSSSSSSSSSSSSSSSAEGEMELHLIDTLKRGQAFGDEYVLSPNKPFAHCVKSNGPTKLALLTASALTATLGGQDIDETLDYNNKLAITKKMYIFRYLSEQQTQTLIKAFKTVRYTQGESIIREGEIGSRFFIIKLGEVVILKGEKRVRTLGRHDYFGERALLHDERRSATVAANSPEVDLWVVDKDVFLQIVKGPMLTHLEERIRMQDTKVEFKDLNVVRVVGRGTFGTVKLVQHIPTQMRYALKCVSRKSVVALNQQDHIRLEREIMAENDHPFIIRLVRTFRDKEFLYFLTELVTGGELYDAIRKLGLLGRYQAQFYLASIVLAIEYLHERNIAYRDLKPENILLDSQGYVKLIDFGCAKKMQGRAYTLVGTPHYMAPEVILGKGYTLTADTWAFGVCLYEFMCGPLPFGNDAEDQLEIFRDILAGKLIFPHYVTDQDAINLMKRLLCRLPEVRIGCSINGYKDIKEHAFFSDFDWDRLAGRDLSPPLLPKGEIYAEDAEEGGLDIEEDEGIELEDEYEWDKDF

Eimeria tenella [4] = assay: Anticoccidial activity against Eimeria tenella in chickens assessed as reduction of oocysts at 6 ppm measured after 8 days by ExMAC assay relative to untreated control; format: functional; set-up: scale not given: the % may be the effect or the level left
Eimeria mitis [5] = assay: Anticoccidial activity against Eimeria mitis in chickens assessed as reduction of oocysts at 6 ppm measured after 8 days by ExMAC assay relative to untreated control; format: functional; set-up: scale not given: the % may be the effect or the level left
Eimeria tenella [6] = assay: Anticoccidial activity against Eimeria tenella in chickens assessed as reduction of oocysts at 12 ppm measured after 8 days by ExMAC assay relative to untreated control; format: functional; set-up: scale not given: the % may be the effect or the level left
Eimeria acervulina [7] = assay: Anticoccidial activity against Eimeria acervulina in chickens assessed as reduction of oocysts at 6 ppm measured after 8 days by ExMAC assay relative to untreated control; format: functional; set-up: scale not given: the % may be the effect or the level left
Eimeria mitis [8] = assay: Anticoccidial activity against Eimeria mitis in chickens assessed as reduction of oocysts at 12 ppm measured after 8 days by ExMAC assay relative to untreated control; format: functional; set-up: scale not given: the % may be the effect or the level left
Eimeria acervulina [9] = assay: Anticoccidial activity against Eimeria acervulina in chickens assessed as reduction of oocysts at 12 ppm measured after 8 days by ExMAC assay relative to untreated control; format: functional; set-up: scale not given: the % may be the effect or the level left
Eimeria maxima [10] = assay: Anticoccidial activity against Eimeria maxima in chickens assessed as reduction of oocysts at 12 ppm measured after 8 days by ExMAC assay relative to untreated control; format: functional; set-up: scale not given: the % may be the effect or the level left
Eimeria acervulina [11] = assay: Anticoccidial activity against Eimeria acervulina in chickens assessed as reduction of oocysts at 3 ppm measured after 8 days by ExMAC assay relative to untreated control; format: functional; set-up: scale not given: the % may be the effect or the level left
Eimeria tenella [12] = assay: Anticoccidial activity against Eimeria tenella in chickens assessed as reduction of oocysts at 3 ppm measured after 8 days by ExMAC assay relative to untreated control; format: functional; set-up: scale not given: the % may be the effect or the level left
Eimeria mitis [13] = assay: Anticoccidial activity against Eimeria mitis in chickens assessed as reduction of oocysts at 3 ppm measured after 8 days by ExMAC assay relative to untreated control; format: functional; set-up: scale not given: the % may be the effect or the level left
Eimeria maxima [14] = assay: Anticoccidial activity against Eimeria maxima in chickens assessed as reduction of oocysts at 50 ppm measured after 8 days by ExMAC assay relative to untreated control; format: functional; set-up: scale not given: the % may be the effect or the level left
Eimeria mitis [15] = assay: Anticoccidial activity against Eimeria mitis in chickens assessed as reduction of oocysts at 50 ppm measured after 8 days by ExMAC assay relative to untreated control; format: functional; set-up: scale not given: the % may be the effect or the level left
Eimeria acervulina [16] = assay: Anticoccidial activity against Eimeria acervulina in chickens assessed as reduction of oocysts at 50 ppm measured after 8 days by ExMAC assay relative to untreated control; format: functional; set-up: scale not given: the % may be the effect or the level left
Eimeria tenella [17] = assay: Anticoccidial activity against Eimeria tenella in chickens assessed as reduction of oocysts at 50 ppm measured after 8 days by ExMAC assay relative to untreated control; format: functional; set-up: scale not given: the % may be the effect or the level left

IC50 [3] [nM] | SMILES | Activity (Eimeria maxima [1]) [%] | Activity (Eimeria maxima [2]) [%] | Activity (Eimeria tenella [4]) [%] | Activity (Eimeria mitis [5]) [%] | Activity (Eimeria tenella [6]) [%] | Activity (Eimeria acervulina [7]) [%] | Activity (Eimeria mitis [8]) [%] | Activity (Eimeria acervulina [9]) [%] | Activity (Eimeria maxima [10]) [%] | Activity (Eimeria acervulina [11]) [%] | Activity (Eimeria tenella [12]) [%] | Activity (Eimeria mitis [13]) [%] | Activity (Eimeria maxima [14]) [%] | Activity (Eimeria mitis [15]) [%] | Activity (Eimeria acervulina [16]) [%] | Activity (Eimeria tenella [17]) [%]
0.145 | CC(C)(N)c1ccn2c(-c3ccnc(N)n3)c(-c3ccc(F)cc3)nc2c1 | 80 | 80 | 80 | <50 | 100 | 80 | <50 | 80 | 100 | 50 | <50 | <50 |  |  |  | 
1.8 | NC(=O)c1ccn2c(-c3ccnc(N)n3)c(-c3ccc(F)cc3)nc2c1 |  |  |  |  |  |  |  |  |  |  |  |  | 50 | <50 | <50 | 80
